{"source": "patent US8952024B2", "about": "“Herbicidal pyrimidone derivatives” (E I du Pont de Nemours and Company, priority 2009, dated 2015)", "format_in_all_cases": "in vivo", "key": {"[1]": {"system": "Surinam grass (Brachiaria decumbens)", "experiment": "Test B pre-/postemergence plant response", "details": "for Plant response rating, Surinam Grass: Postemergence, scale 0 to 100 (0 no effect, 100 complete control)", "outline": "(§1)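 Steps: sow seed in loam–sand soil and spray preemergence, or grow plants in peat-based medium to 1–4 leaves (2–18 cm) and spray postemergence; formulation is non-phytotoxic solvent plus surfactant; hold in greenhouse 13–15 days; score visually vs controls, 0 = no effect, 100 = complete control.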"}, "[2]": {"system": "wheat (Triticum aestivum)", "experiment": "Test B pre-/postemergence plant response", "outline": "as §1"}, "[3]": {"system": "velvetleaf (Abutilon theophrasti)", "experiment": "Test B pre-/postemergence plant response", "details": "for Plant response rating, Velvetleaf: Postemergence, scale 0 to 100 (0 no effect, 100 complete control)", "outline": "as §1"}, "[4]": {"system": "blackgrass (Alopecurus myosuroides)", "experiment": "Test B pre-/postemergence plant response", "outline": "as §1"}, "wild oat (Avena fatua)": {"system": "wild oat (Avena fatua)", "experiment": "Test B pre-/postemergence plant response", "outline": "as §1"}, "[5]": {"system": "cocklebur (Xanthium strumarium)", "experiment": "Test B pre-/postemergence plant response", "outline": "as §1"}, "kochia (Kochia scoparia)": {"system": "kochia (Kochia scoparia)", "experiment": "Test B pre-/postemergence plant response", "outline": "as §1"}, "[6]": {"system": "lambsquarters (Chenopodium album)", "experiment": "Test B pre-/postemergence plant response", "outline": "as §1"}, "soybean (Glycine max)": {"system": "soybean (Glycine max)", "experiment": "Test B pre-/postemergence plant response", "details": "for Plant response rating, Soybean: Postemergence, scale 0 to 100 (0 no effect, 100 complete control)", "outline": "as §1"}, "[7]": {"system": "pigweed (Amaranthus retroflexus)", "experiment": "Test B pre-/postemergence plant response", "outline": "as §1"}, "[8]": {"system": "windgrass (Apera spica-venti)", "experiment": "Test B postemergence plant response", "outline": "(§2)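 Visual ratings from 0 (no effect) to 100 (complete control), made against controls 13–15 days after treatment, kept in a greenhouse. Compounds were applied postemergence to potted plants at the 1- to 4-leaf stage (2–18 cm).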"}, "[9]": {"system": "canarygrass (Phalaris minor)", "experiment": "Test B postemergence plant response", "outline": "as §2"}, "[10]": {"system": "chickweed (Stellaria media)", "experiment": "Test B postemergence plant response", "outline": "as §2"}, "[11]": {"details": "62 g ai/ha, postemergence, 0 is no effect, 100 is complete control, 13 to 15 days"}, "[12]": {"details": "Postemergence, 125 g ai/ha, scale 0 to 100 (0 no effect, 100 complete control)"}, "[13]": {"details": "31 g ai/ha, postemergence, scale 0 to 100, 0 is no effect, 100 is complete control"}, "[14]": {"details": "Postemergence, 250 g ai/ha, scale 0 to 100 (0 no effect, 100 complete control)"}}}
{"smiles": "COCC(C)n1c(-c2ccccc2)ncc(C(=O)C2=C(O)CCCC2=O)c1=O", "note": "(stereo not drawn) [Compound 107]", "values": [{"measurement": "Surinam Grass plant response rating (0 to 100 scale)", "setting": "[1]; [11]", "value": 75}, {"measurement": "Plant response rating, Surinam Grass", "setting": "[1]; 125 g ai/ha", "value": 80}, {"measurement": "Plant response rating, Surinam Grass", "setting": "[1]; 250 g ai/ha", "value": 85}, {"measurement": "Wheat plant response rating (0 to 100 scale)", "setting": "[2]; [11]", "value": 5}, {"measurement": "Plant response rating, Wheat", "setting": "[2]; [12]", "value": 5}, {"measurement": "Velvetleaf plant response rating (0 to 100 scale)", "setting": "[3]; [11]", "value": 100}, {"measurement": "Plant response rating, Velvetleaf", "setting": "[3]; 125 g ai/ha", "value": 100}, {"measurement": "Plant response rating, Velvetleaf", "setting": "[3]; 250 g ai/ha", "value": 100}, {"measurement": "Plant response rating, Blackgrass", "setting": "[4]; [13]", "value": 0}, {"measurement": "Blackgrass plant response rating (0 to 100 scale)", "setting": "[4]; [11]", "value": 5}, {"measurement": "Plant response rating, Blackgrass", "setting": "[4]; [12]", "value": 15}, {"measurement": "Plant response rating, Blackgrass", "setting": "[4]; [14]", "value": 20}, {"measurement": "Plant response rating, Oat, Wild", "setting": "wild oat (Avena fatua); [13]", "value": 0}, {"measurement": "Oat, Wild plant response rating (0 to 100 scale)", "setting": "wild oat (Avena fatua); [11]", "value": 5}, {"measurement": "Plant response rating, Oat, Wild", "setting": "wild oat (Avena fatua); [12]", "value": 20}, {"measurement": "Plant response rating, Oat, Wild", "setting": "wild oat (Avena fatua); [14]", "value": 40}, {"measurement": "Plant response rating, Cocklebur", "setting": "[5]; [13]", "value": 98}, {"measurement": "Cocklebur plant response rating (0 to 100 scale)", "setting": "[5]; [11]", "value": 100}, {"measurement": "Plant response rating, Cocklebur", "setting": "[5]; [12]", "value": 100}, {"measurement": "Plant response rating, Cocklebur", "setting": "[5]; [14]", "value": 100}, {"measurement": "Plant response rating, Kochia", "setting": "kochia (Kochia scoparia); [13]", "value": 98}, {"measurement": "Kochia plant response rating (0 to 100 scale)", "setting": "kochia (Kochia scoparia); [11]", "value": 98}, {"measurement": "Plant response rating, Kochia", "setting": "kochia (Kochia scoparia); [12]", "value": 100}, {"measurement": "Plant response rating, Kochia", "setting": "kochia (Kochia scoparia); [14]", "value": 100}, {"measurement": "Plant response rating, Lambsquarters", "setting": "[6]; [13]", "value": 90}, {"measurement": "Lambsquarters plant response rating (0 to 100 scale)", "setting": "[6]; [11]", "value": 100}, {"measurement": "Plant response rating, Lambsquarters", "setting": "[6]; [12]", "value": 100}, {"measurement": "Plant response rating, Lambsquarters", "setting": "[6]; [14]", "value": 100}, {"measurement": "Soybean plant response rating (0 to 100 scale)", "setting": "soybean (Glycine max); [11]", "value": 98}, {"measurement": "Plant response rating, Soybean", "setting": "soybean (Glycine max); 125 g ai/ha", "value": 100}, {"measurement": "Plant response rating, Soybean", "setting": "soybean (Glycine max); 250 g ai/ha", "value": 100}, {"measurement": "Plant response rating, Pigweed", "setting": "[7]; [13]", "value": 95}, {"measurement": "Pigweed plant response rating (0 to 100 scale)", "setting": "[7]; [11]", "value": 100}, {"measurement": "Plant response rating, Pigweed", "setting": "[7]; [12]", "value": 100}, {"measurement": "Plant response rating, Pigweed", "setting": "[7]; [14]", "value": 100}, {"measurement": "Windgrass plant response rating (0 to 100 scale)", "setting": "[8]; [11]", "value": 40}, {"measurement": "Plant response rating, Windgrass", "setting": "[8]; [12]", "value": 80}, {"measurement": "Plant response rating, Canarygrass", "setting": "[9]; [13]", "value": 5}, {"measurement": "Canarygrass plant response rating (0 to 100 scale)", "setting": "[9]; [11]", "value": 15}, {"measurement": "Plant response rating, Canarygrass", "setting": "[9]; [12]", "value": 60}, {"measurement": "Plant response rating, Canarygrass", "setting": "[9]; [14]", "value": 80}, {"measurement": "Plant response rating, Chickweed", "setting": "[10]; [13]", "value": 98}, {"measurement": "Chickweed plant response rating (0 to 100 scale)", "setting": "[10]; [11]", "value": 100}, {"measurement": "Plant response rating, Chickweed", "setting": "[10]; [12]", "value": 100}, {"measurement": "Plant response rating, Chickweed", "setting": "[10]; [14]", "value": 100}]}
